This is an account of results in US7413894B2, “TAG-1 and TAG-2 proteins and uses thereof” (University of Virginia Patent Foundation, priority 2003, dated 2008).

Test [1] deals with C1R-A3 targets for lysis by VMM18 CTL. Kind of test: CTL epitope reconstitution assay (four-hour 51Cr-release). The format is cell-based. The conditions noted are these: active at concentrations as low as. The procedure: VMM18-specific CTL have been described previously (Skipper et al., 1996, J Immunol 157, 5027-5033). CTL were expanded in bulk culture using anti-CD3 antibody (Greenberg and Cheever, 1985, Surv Immunol Res 4, 283-296) and cryopreserved in aliquots of 1-5×10^7 cells for use in epitope reconstitution assays.
Aliquots of each RP-HPLC fraction were tested for the presence of peptides that could sensitize C1R-A3 targets for lysis by VMM18 CTL in standard four-hour 51Cr-release assays as previously described (Hogan et al., 1998, Cancer Res 58, 5144-5150).

The target of test [2] is T1, class I MHC molecule, HLA-A3 (Homo sapiens, UniProt P04439).
T1 construct: endogenous in cells; host or cells: VMM18 melanoma tumor cells
T1 sequence (P04439 25-365): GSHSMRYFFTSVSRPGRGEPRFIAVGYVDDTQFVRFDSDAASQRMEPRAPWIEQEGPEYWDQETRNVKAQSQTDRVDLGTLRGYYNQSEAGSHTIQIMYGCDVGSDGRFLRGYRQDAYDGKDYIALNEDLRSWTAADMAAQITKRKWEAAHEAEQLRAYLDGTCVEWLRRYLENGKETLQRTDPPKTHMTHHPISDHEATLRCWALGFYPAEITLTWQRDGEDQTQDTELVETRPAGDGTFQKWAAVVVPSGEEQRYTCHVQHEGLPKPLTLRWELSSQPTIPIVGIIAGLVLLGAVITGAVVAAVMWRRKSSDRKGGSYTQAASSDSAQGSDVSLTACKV
T1 sequence (P61769 21-119 partner): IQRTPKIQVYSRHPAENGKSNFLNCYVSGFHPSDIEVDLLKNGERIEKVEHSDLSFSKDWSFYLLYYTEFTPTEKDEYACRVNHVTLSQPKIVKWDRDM
Kind of test: Isolation of HLA-A3 associated peptides (immunoaffinity purification from VMM18 tumor cells). It is filed as binding. The procedure: Immunoaffinity purification of class I MHC molecules from aliquots of 6-8×10^10 VMM18 tumor cells was performed as described (Hogan et al., 1998, Cancer Res 58, 5144-5150), except that the HLA-A3-specific monoclonal antibody GAP-A3, bound to protein A-Sepharose, was used to isolate the HLA-A3 molecules.
Peptide extracts were fractionated by RP-HPLC using an Applied Biosystems model 140B system. The extracts were concentrated by vacuum centrifugation and injected onto a Higgins (Mountain View, Calif.) C18 HAISIL column (2.1 mm×4 cm, 300 Å, 5 μm). The peptides were eluted with a gradient of acetonitrile/0.085% trifluoroacetic acid (TFA)* in 0.1% TFA/water, with the concentration of acetonitrile increasing from 0 to 9% (0 to 5 min), 9 to 36% (5 to 55 min), and 36 to 60% (55 to 62 min). Second dimension fractionations of selected first dimension (TFA) fractions were accomplished using the same gradient but with the substitution of heptafluorobutyric acid (HFBA) for TFA. A third dimension of RP-HPLC was achieved using an Eldex (Napa, Calif.) MicroPro pump, a homemade C18 microcapillary column and an Applied Biosystems model 785A UV absorbance detector. The column was made by packing a 27-cm bed of 10-μm C18 particles in a section of 285 μm o.d.×75 μm i.d. fused silica. […] In all RP-HPLC experiments, peptides were detected by monitoring UV absorbance at 214 nm.

For RLSNRLLLR (listed as Homo sapiens), the “concentration at which the synthetic peptide is active in sensitizing C1R-A3 targets for lysis by VMM18 CTL” value in test [1] is listed as no more than 10 pM. In test [2], the “binding to HLA-A3” value is listed as “binds to the class I MHC molecule, HLA-A3”. Take SQNFPGSQK (listed as Homo sapiens): the “concentration at which the synthetic peptide is active in sensitizing C1R-A3 targets for lysis by VMM18 CTL” value in test [1] is on record as no more than 10 pM.
